# Assay results taken from ChEMBL document CHEMBL2331144, “Synthesis and anticancer activity of analogues of phenstatin, with a phenothiazine A-ring, as a new class of microtubule-targeting agents” (Bioorg Med Chem Lett, 2013).
# Assays:
# DU-145 = assay: Growth inhibition of human DU145 cells after 48 hrs by sulforhodamine B assay; format: functional; details: DU-145, 48 h
# PC-3 = assay: Growth inhibition of human PC3 cells after 48 hrs by sulforhodamine B assay; format: functional; details: PC-3, 48 h
# SK-MEL-2 = assay: Growth inhibition of human SK-MEL-2 cells after 48 hrs by sulforhodamine B assay; format: functional; details: SK-MEL-2, 48 h
# A549 = assay: Growth inhibition of human A549/ATCC cells after 48 hrs by sulforhodamine B assay; format: functional; details: A549, 48 h
# NCI-H522 = assay: Growth inhibition of human NCI-H522 cells after 48 hrs by sulforhodamine B assay; format: functional; details: NCI-H522, 48 h
# CAKI-1 = assay: Growth inhibition of human CAKI-1 cells after 48 hrs by sulforhodamine B assay; format: functional; details: CAKI-1, 48 h
# HT-29 = assay: Growth inhibition of human HT-29 cells after 48 hrs by sulforhodamine B assay; format: functional; details: HT-29, 48 h
# LOX IMVI = assay: Growth inhibition of human LOXIMVI cells after 48 hrs by sulforhodamine B assay; format: functional
# [1] = Growth inhibition of human Hs 578T cells after 48 hrs by sulforhodamine B assay; format: functional
# TK-10 = assay: Growth inhibition of human TK10 cells after 48 hrs by sulforhodamine B assay; format: functional; details: TK-10, 48 h
# KM12 = assay: Growth inhibition of human KM12 cells after 48 hrs by sulforhodamine B assay; format: functional; details: KM12, 48 h
# SF-295 = assay: Growth inhibition of human SF295 cells after 48 hrs by sulforhodamine B assay; format: functional; details: SF-295, 48 h
# SF-268 = assay: Growth inhibition of human SF268 cells after 48 hrs by sulforhodamine B assay; format: functional; details: SF-268, 48 h
# UACC-257 = assay: Growth inhibition of human UACC257 cells after 48 hrs by sulforhodamine B assay; format: functional; details: UACC-257, 48 h
# SW-620 = assay: Growth inhibition of human SW620 cells after 48 hrs by sulforhodamine B assay; format: functional; details: SW-620, 48 h
# Ovis aries = species: Ovis aries; assay: Inhibition of sheep brain tubulin polymerization at 100 uM using DAPI by fluorimetry
# NCI-H23 = assay: Growth inhibition of human NCI-H23 cells after 48 hrs by sulforhodamine B assay; format: functional; details: NCI-H23, 48 h
# IGROV-1 = assay: Growth inhibition of human IGROV1 cells after 48 hrs by sulforhodamine B assay; format: functional; details: IGROV-1, 48 h
# OVCAR-8 = assay: Growth inhibition of human OVCAR8 cells after 48 hrs by sulforhodamine B assay; format: functional; details: OVCAR-8, 48 h
# K562 = assay: Growth inhibition of human K562 cells after 48 hrs by sulforhodamine B assay; format: functional; details: K562, 48 h
# HCT-15 = assay: Growth inhibition of human HCT15 cells after 48 hrs by sulforhodamine B assay; format: functional; details: HCT-15, 48 h
# SK-MEL-28 = assay: Growth inhibition of human SK-MEL-28 cells after 48 hrs by sulforhodamine B assay; format: functional; details: SK-MEL-28, 48 h
# UACC-62 = assay: Growth inhibition of human UACC62 cells after 48 hrs by sulforhodamine B assay; format: functional; details: UACC-62, 48 h
# HL-60(TB) = assay: Growth inhibition of human HL-60(TB) cells after 48 hrs by sulforhodamine B assay; format: functional; details: HL-60, 48 h
# 786-0 = assay: Growth inhibition of human 786-0 cells after 48 hrs by sulforhodamine B assay; format: functional; details: 786-0, 48 h
# M14 = assay: Growth inhibition of human M14 cells after 48 hrs by sulforhodamine B assay; format: functional; details: M14, 48 h
# SN12C = assay: Growth inhibition of human SN12C cells after 48 hrs by sulforhodamine B assay; format: functional
# HCT-116 = assay: Growth inhibition of human HCT116 cells after 48 hrs by sulforhodamine B assay; format: functional; details: HCT-116, 48 h
# OVCAR-3 = assay: Growth inhibition of human OVCAR3 cells after 48 hrs by sulforhodamine B assay; format: functional; details: OVCAR-3, 48 h
# MDA-MB-435 = assay: Growth inhibition of human MDA-MB-435 cells after 48 hrs by sulforhodamine B assay; format: functional; details: MDA-MB-435, 48 h
# MDA-MB-468 = assay: Growth inhibition of human MDA-MB-468 cells after 48 hrs by sulforhodamine B assay; format: functional; details: MDA-MB-468, 48 h
# SK-OV-3 = assay: Growth inhibition of human SKOV3 cells after 48 hrs by sulforhodamine B assay; format: functional; details: SK-OV-3, 48 h
# RPMI-8226 = assay: Growth inhibition of human RPMI8226 cells after 48 hrs by sulforhodamine B assay; format: functional; details: RPMI-8226, 48 h
# MDA-MB-231 = assay: Growth inhibition of human MDA-MB-231 cells after 48 hrs by sulforhodamine B assay; format: functional; details: MDA-MB-231, 48 h
# [2] = Growth inhibition of human NCI-ADR-RES cells after 48 hrs by sulforhodamine B assay; format: functional
# SF-539 = assay: Growth inhibition of human SF539 cells after 48 hrs by sulforhodamine B assay; format: functional; details: SF-539, 48 h
# RXF 393 = assay: Growth inhibition of human RXF393 cells after 48 hrs by sulforhodamine B assay; format: functional; details: RXF 393, 48 h
# UO-31 = assay: Growth inhibition of human UO31 cells after 48 hrs by sulforhodamine B assay; format: functional; details: UO-31, 48 h
# HOP-92 = assay: Growth inhibition of human HOP92 cells after 48 hrs by sulforhodamine B assay; format: functional; details: HOP-92, 48 h
# SR = assay: Growth inhibition of human SR cells after 48 hrs by sulforhodamine B assay; format: functional
# SNB-75 = assay: Growth inhibition of human SNB75 cells after 48 hrs by sulforhodamine B assay; format: functional; details: SNB-75, 48 h
# T47D = assay: Growth inhibition of human T47D cells after 48 hrs by sulforhodamine B assay; format: functional
# [3] = Inhibition of sheep brain tubulin polymerization using DAPI by fluorimetry; parameters: species or system Ovis aries
# NCI-H460 = assay: Growth inhibition of human NCI-H460 cells after 48 hrs by sulforhodamine B assay; format: functional; details: NCI-H460, 48 h
# OVCAR-5 = assay: Growth inhibition of human OVCAR5 cells after 48 hrs by sulforhodamine B assay; format: functional; details: OVCAR-5, 48 h
# MCF7 = assay: Growth inhibition of human MCF7 cells after 48 hrs by sulforhodamine B assay; format: functional; details: MCF7, 48 h
# SK-MEL-5 = assay: Growth inhibition of human SK-MEL-5 cells after 48 hrs by sulforhodamine B assay; format: functional; details: SK-MEL-5, 48 h
# CCRF-CEM = assay: Growth inhibition of human CCRF-CEM cells after 48 hrs by sulforhodamine B assay; format: functional
# COLO 205 = assay: Growth inhibition of human COLO205 cells after 48 hrs by sulforhodamine B assay; format: functional; details: COLO 205, 48 h
# A498 = assay: Growth inhibition of human A498 cells after 48 hrs by sulforhodamine B assay; format: functional; details: A498, 48 h
# [4] = Growth inhibition of human HCC2998 cells after 48 hrs by sulforhodamine B assay; format: functional; details: HCC 2998, 48 h
# [5] = Growth inhibition of human EKVX cells after 48 hrs by sulforhodamine B assay; format: functional
# HOP-62 = assay: Growth inhibition of human HOP62 cells after 48 hrs by sulforhodamine B assay; format: functional; details: HOP-62, 48 h
# ACHN = assay: Growth inhibition of human ACHN cells after 48 hrs by sulforhodamine B assay; format: functional
# Malme-3M = assay: Growth inhibition of human MALME-3M cells after 48 hrs by sulforhodamine B assay; format: functional
# OVCAR-4 = assay: Growth inhibition of human OVCAR4 cells after 48 hrs by sulforhodamine B assay; format: functional; details: OVCAR-4, 48 h
# BT-549 = assay: Growth inhibition of human BT549 cells after 48 hrs by sulforhodamine B assay; format: functional; details: BT-549, 48 h
# MOLT-4 = assay: Growth inhibition of human MOLT4 cells after 48 hrs by sulforhodamine B assay; format: functional; details: MOLT-4, 48 h
smiles,measurement,setting,value
O=C(c1ccc2c(c1)Sc1ccccc1N2)c1c[nH]c2ccccc12,GI50,DU-145,1420 nM
same,GI50,PC-3,654 nM
same,GI50,SK-MEL-2,397 nM
same,GI50,A549,634 nM
same,GI50,NCI-H522,248 nM
same,GI50,CAKI-1,462 nM
same,GI50,HT-29,368 nM
same,GI50,LOX IMVI,446 nM
same,GI50,[1],702 nM
same,GI50,TK-10,2140 nM
same,GI50,KM12,365 nM
same,GI50,SF-295,323 nM
same,GI50,SF-268,1500 nM
same,GI50,UACC-257,581 nM
same,GI50,SW-620,406 nM
same,inhibition,Ovis aries,66%
same,GI50,NCI-H23,943 nM
same,GI50,IGROV-1,620 nM
same,GI50,OVCAR-8,1040 nM
same,GI50,K562,395 nM
same,GI50,HCT-15,489 nM
same,GI50,SK-MEL-28,647 nM
same,GI50,UACC-62,532 nM
same,GI50,HL-60(TB),382 nM
same,GI50,786-0,1900 nM
same,GI50,M14,372 nM
same,GI50,SN12C,888 nM
same,GI50,HCT-116,404 nM
same,GI50,OVCAR-3,404 nM
same,GI50,MDA-MB-435,112 nM
same,GI50,MDA-MB-468,314 nM
same,GI50,SK-OV-3,533 nM
same,GI50,RPMI-8226,761 nM
same,GI50,MDA-MB-231,1110 nM
same,GI50,[2],247 nM
same,GI50,SF-539,576 nM
same,GI50,RXF 393,1270 nM
same,GI50,UO-31,1030 nM
same,GI50,HOP-92,970 nM
same,GI50,SR,382 nM
same,GI50,SNB-75,326 nM
same,GI50,T47D,502 nM
same,IC50,[3],38900 nM
same,GI50,NCI-H460,429 nM
same,GI50,OVCAR-5,1750 nM
same,GI50,MCF7,293 nM
same,GI50,SK-MEL-5,408 nM
same,GI50,CCRF-CEM,380 nM
same,GI50,COLO 205,435 nM
same,GI50,A498,251 nM
same,GI50,[4],976 nM
same,GI50,[5],11600 nM
same,GI50,HOP-62,670 nM
same,GI50,ACHN,1780 nM
same,GI50,Malme-3M,997 nM
same,GI50,OVCAR-4,16500 nM
same,GI50,BT-549,398 nM
same,GI50,MOLT-4,3750 nM
